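These data come from cells grown in 96-well plates and exposed to compound for 48 hours at five concentrations. At the GI50, growth is halved. TGI is the concentration that stops growth completely.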 Where only a bound is given, the exact number is not on record here.

Test systems include HCT-15 colon; SF-268 CNS; UACC-257 melanoma; HL-60(TB) leukemia; SF-295 CNS; HT29 colon; SK-MEL-2 melanoma; UO-31 renal; U251 CNS; KM12 colon.
Holding throughout (assay): DTP human tumour cell line panel, 48 h

For orientation: TGI means the concentration giving total growth inhibition. Read a low TGI as greater sensitivity of the cells. For `CSC(=S)N(C)c1nc(=[N+](C)C)ss1`, the TGI in the assay on HCT-15 colon, in the assay with SF-268 CNS, with UACC-257 melanoma, with HL-60(TB) leukemia, with SF-295 CNS and with HT29 colon was over 100 µM throughout. The TGI in the assay with SK-MEL-2 melanoma, in the assay on UO-31 renal, with U251 CNS and in the assay with KM12 colon was over 100 µM throughout.

As a reminder, the GI50 is the concentration giving 50% growth inhibition. Consider `Cc1sc2ncnc(Sc3nc4ccccc4[nH]3)c2c1C`, for which the GI50 is 28.2 µM with HCT-15 colon; 20.6 µM in the assay with SF-268 CNS; 24.7 µM in the assay on UACC-257 melanoma; 22.7 µM in the assay with HL-60(TB) leukemia; 55800 nM in the assay with SF-295 CNS; 21.9 µM with HT29 colon. Besides, the GI50 with SK-MEL-2 melanoma is 33.5 µM; with UO-31 renal, 14.7 µM; in the assay on U251 CNS it was 18.8 µM; with KM12 colon, 27.2 µM. The TGI in the assay on HCT-15 colon was over 100 µM; with SF-268 CNS, 62.1 µM; in the assay with UACC-257 melanoma, 98.9 µM; with HL-60(TB) leukemia, 59.4 µM; in the assay with SF-295 CNS, over 100 µM; in the assay on HT29 colon it was 53.6 µM. The TGI in the assay on SK-MEL-2 melanoma was 99 µM; in the assay on UO-31 renal, 96.7 µM; in the assay on U251 CNS it was 43.2 µM; in the assay on KM12 colon, over 100 µM.

In the case of `CC(=O)OCC(=O)[C@@]1(O)[C@H](C)C[C@H]2[C@@H]3C=C(C)C4=Cc5c(cnn5-c5ccc(F)cc5)C[C@]4(C)[C@H]3[C@@H](O)C[C@@]21C`, the GI50 with HCT-15 colon was 1.45 µM; in the assay on SF-268 CNS it was 2.48 µM; with UACC-257 melanoma, 2.76 µM; in the assay on HL-60(TB) leukemia, 4.1 µM; with SF-295 CNS, 982 nM; in the assay on HT29 colon, 1.32 µM. For the same compound, the GI50 in the assay with SK-MEL-2 melanoma was 2.14 µM; in the assay with UO-31 renal it was 4.31 µM; in the assay with U251 CNS, 1.25 µM; in the assay on KM12 colon, 1.44 µM. In addition, the TGI with HCT-15 colon worked out at 3.63 µM; in the assay on SF-268 CNS, 8.39 µM; in the assay on UACC-257 melanoma, 8.54 µM; in the assay with HL-60(TB) leukemia, 9.02 µM; with SF-295 CNS it was 5.13 µM; with HT29 colon, 3.07 µM. Also, the TGI in the assay on SK-MEL-2 melanoma amounted to 6.36 µM; with UO-31 renal it was 15.6 µM; in the assay on U251 CNS it was 3.27 µM; with KM12 colon it was 2.94 µM.

In the case of `CC(C)(C)Cn1c(N)nc2ccc(-c3[nH]c(C(C)(C)C)nc3-c3ccc(F)cc3)nc21`, the GI50 in the assay with HCT-15 colon was 4.9 µM; in the assay on SF-268 CNS, 10.6 µM; in the assay with UACC-257 melanoma, 11.2 µM; with HL-60(TB) leukemia it was 19.9 µM; in the assay on SF-295 CNS, 7820 nM; in the assay with HT29 colon it was 4.52 µM. In addition, the GI50 is 13.1 µM with SK-MEL-2 melanoma, 0.406 µM with UO-31 renal, 10.8 µM in the assay on U251 CNS and 10.3 µM with KM12 colon. Moreover, the TGI with HCT-15 colon is 30.4 µM; with SF-268 CNS, 28.7 µM; with UACC-257 melanoma, 23.9 µM; with HL-60(TB) leukemia, 81.4 µM; in the assay on SF-295 CNS, 22 µM; with HT29 colon, 19.3 µM. The TGI with SK-MEL-2 melanoma was determined as 27.1 µM; with UO-31 renal it was 15.1 µM; with U251 CNS, 25.2 µM; in the assay on KM12 colon it was 23.9 µM.

`COC(=O)c1c/c(=N\NC(=O)CC(=O)Nc2ccccc2Cl)c2ccccc2o1`: the TGI in the assay on HCT-15 colon, in the assay with SF-268 CNS, with UACC-257 melanoma, with HL-60(TB) leukemia, in the assay with SF-295 CNS and in the assay with HT29 colon was over 100 µM throughout. The TGI with SK-MEL-2 melanoma, in the assay on UO-31 renal, in the assay with U251 CNS and in the assay with KM12 colon was over 100 µM each time.

Regarding `CCOC(=O)c1sc(=S)c2c(C(=O)c3ccccc3)c(C(=O)c3ccccc3)sc2c1C(=O)OCC`, the GI50 was 4.1 µM in the assay on HCT-15 colon; 3.55 µM in the assay on SF-268 CNS; 3.45 µM with UACC-257 melanoma; 2.71 µM with HL-60(TB) leukemia; 2860 nM in the assay with SF-295 CNS; 6.9 µM in the assay on HT29 colon. Also, the GI50 is 3.51 µM with SK-MEL-2 melanoma, 5.12 µM in the assay on UO-31 renal, 3.49 µM with U251 CNS and 2.44 µM in the assay with KM12 colon. Also, the TGI with HCT-15 colon was over 100 µM; in the assay with SF-268 CNS it was 71.8 µM; in the assay on UACC-257 melanoma, 25.7 µM; in the assay with HL-60(TB) leukemia it was 7.58 µM; in the assay with SF-295 CNS, 13.5 µM; in the assay on HT29 colon, over 100 µM. Besides, the TGI in the assay with SK-MEL-2 melanoma was 48.4 µM; in the assay on UO-31 renal, over 100 µM; with U251 CNS, over 100 µM; in the assay with KM12 colon, 11 µM.

As to `O=C(O)C(/C=C/c1ccco1)=N\Nc1nc(-c2ccc(Cl)cc2)cs1`, the GI50 is 9.27 µM in the assay on HCT-15 colon; 11.1 µM in the assay on SF-268 CNS; 16.8 µM in the assay on UACC-257 melanoma; 17.1 µM with HL-60(TB) leukemia; 842 nM in the assay with SF-295 CNS; 20.9 µM in the assay with HT29 colon. For the same compound, the GI50 in the assay on SK-MEL-2 melanoma is 9.45 µM; in the assay with UO-31 renal, 12.9 µM; in the assay with U251 CNS, 4.59 µM; with KM12 colon, 11.2 µM. Besides, the TGI with HCT-15 colon is over 50 µM; in the assay with SF-268 CNS it was over 50 µM; in the assay with UACC-257 melanoma it was over 50 µM; with HL-60(TB) leukemia, over 50 µM; in the assay with SF-295 CNS, 4.23 µM; in the assay with HT29 colon, over 50 µM. Besides, the TGI in the assay on SK-MEL-2 melanoma is 24.8 µM; in the assay with UO-31 renal, over 50 µM; with U251 CNS, over 50 µM; in the assay with KM12 colon, over 50 µM.

`CC[C@@]1(O)C(=O)NCc2c1cc1n(c2=O)Cc2cc3cc4c(cc3nc2-1)OCO4`: the GI50 is 8.58 µM in the assay on HCT-15 colon; 0.236 µM in the assay with SF-268 CNS; 14.1 µM with UACC-257 melanoma; 0.0462 µM in the assay on HL-60(TB) leukemia; 148 nM with SF-295 CNS; 2.02 µM in the assay with HT29 colon. The GI50 in the assay with SK-MEL-2 melanoma was 67.5 µM; with UO-31 renal it was 1.48 µM; with U251 CNS it was 0.408 µM; with KM12 colon it was 11.7 µM. In addition, the TGI was over 100 µM in the assay on HCT-15 colon; over 30.7 µM with SF-268 CNS; over 100 µM in the assay with UACC-257 melanoma; 0.502 µM with HL-60(TB) leukemia; 25.7 µM in the assay on SF-295 CNS; 37.3 µM in the assay with HT29 colon. Also, the TGI is over 100 µM in the assay on SK-MEL-2 melanoma, over 33.1 µM in the assay with UO-31 renal, 12.9 µM in the assay on U251 CNS and over 100 µM in the assay on KM12 colon.

With `Cc1cccc(C(C)(C)C)c1NC(=O)CC1C(=O)Nc2ccccc2S1=O` (stereo not given), the TGI was over 100 µM in the assay with HCT-15 colon; over 100 µM with SF-268 CNS; over 100 µM with UACC-257 melanoma; 43.7 µM with HL-60(TB) leukemia; over 100 µM in the assay with SF-295 CNS; over 100 µM with HT29 colon. The TGI with SK-MEL-2 melanoma, in the assay on UO-31 renal, in the assay on U251 CNS and with KM12 colon was over 100 µM throughout.

As to `COc1ccc(/C=C/C(=O)c2ccc(Nc3ncnc4ccccc34)cc2)cc1OC`, the GI50 was 8.63 µM with HCT-15 colon; 6.55 µM with SF-268 CNS; 20.3 µM in the assay on UACC-257 melanoma; 20.7 µM with HL-60(TB) leukemia; 6250 nM with SF-295 CNS; 3.21 µM with HT29 colon. The GI50 is 13.9 µM with SK-MEL-2 melanoma, 4.57 µM in the assay with UO-31 renal, 3.66 µM in the assay on U251 CNS and 3.45 µM with KM12 colon. Also, the TGI in the assay on HCT-15 colon was over 100 µM; in the assay with SF-268 CNS, over 100 µM; in the assay on UACC-257 melanoma, over 100 µM; in the assay with HL-60(TB) leukemia, over 100 µM; in the assay with SF-295 CNS it was over 100 µM; with HT29 colon, 12.1 µM. Besides, the TGI is 44.8 µM in the assay with SK-MEL-2 melanoma, 68.3 µM in the assay on UO-31 renal, over 100 µM with U251 CNS and over 100 µM in the assay with KM12 colon.

The values are drawn from PubChem BioAssay (NCI).
